Where a name gives a salt, the structure may show the parent alone. Read-outs that look alike come from different tables or passages of the source.
Columns and labels:
Format in all cases: cell-based
Agam\Orco = molecular target: T1, Agam\Orco (Anopheles gambiae, UniProt Q7QCC7); assay: cell-based
T1 construct: expressed in transfected cells; host or cells: Xenopus laevis oocytes injected with capped cRNA (plasmid pT7TS, gift of L. Zwiebel)
T1 sequence (Q7QCC7 1-478): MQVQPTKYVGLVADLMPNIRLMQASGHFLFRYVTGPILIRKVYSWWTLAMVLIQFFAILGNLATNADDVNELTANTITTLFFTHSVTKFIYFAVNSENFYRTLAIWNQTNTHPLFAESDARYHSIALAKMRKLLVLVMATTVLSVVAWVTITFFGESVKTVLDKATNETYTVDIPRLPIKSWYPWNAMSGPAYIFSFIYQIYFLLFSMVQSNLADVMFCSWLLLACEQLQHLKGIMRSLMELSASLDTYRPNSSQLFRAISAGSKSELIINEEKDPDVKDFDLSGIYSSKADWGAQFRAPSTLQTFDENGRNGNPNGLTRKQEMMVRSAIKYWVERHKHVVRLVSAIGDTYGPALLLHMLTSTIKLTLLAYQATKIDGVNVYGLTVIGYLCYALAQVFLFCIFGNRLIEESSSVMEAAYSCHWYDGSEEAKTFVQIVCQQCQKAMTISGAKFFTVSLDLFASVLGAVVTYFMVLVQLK
How it was run: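 Xenopus oocytes injected with 25 ng Agam\Orco cRNA, clamped at −70 mV in ND96 by two-electrode voltage clamp. After two 60 s pulses of 30 μM OLC12, compound applied 90 s then co-applied with OLC12 60 s; response was given as percent of prior OLC12 responses, sham-normalized.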

Agam\Or28 + Agam\Orco = molecular target: T2, Agam\Or28 + Agam\Orco (Anopheles gambiae, UniProt Q7QCC7); assay: Inhibition of heteromeric OR in oocytes (acetophenone activation); details: for inhibition of odorant activation: 100 µM antagonist, 40 µM acetophenone
T2 construct: expressed in transfected cells; host or cells: Xenopus laevis oocytes
T2 sequence (Q7QCC7 1-478): T1 sequence (Q7QCC7 1-478)
Method: (§1) An automated parallel electrophysiology system (OpusExpress 6000 A, Molecular Devices) was used to record Orco agonist (OLC12) or odorant induced currents under two-electrode voltage clamp. Oocytes were perfused with ND96 (in mM: 96 NaCl, 2 KCl, 1 CaCl2, 1 MgCl2, 5 HEPES, pH 7.4). DMSO was used to prepare 1 M or 100 mM stock solutions of test compounds, which were then diluted in ND96 on the day of the experiment. Compounds were applied at a flow rate of 1.0 mL/min, with extensive washing in ND96 at 4.6 mL/min between applications. Micropipettes with resistances of 0.2–2.0 MΩ were filled with 3 M KCl. The holding potential was −70 mV. Current responses were filtered (4-pole, Bessel, low pass) at 20 Hz (−3 db) and sampled at 100 Hz. OpusXpress 1.1 software (Molecular Devices) was used to capture and store current responses.

Agam\Or65 + Agam\Orco = molecular target: T3, Agam\Or65 + Agam\Orco (Anopheles gambiae, UniProt Q7QCC7); assay: Inhibition of heteromeric OR in oocytes (eugenol activation); details: 100 µM antagonist; 100 nM eugenol
T3 construct: expressed in transfected cells; host or cells: Xenopus laevis oocytes
T3 sequence (Q7QCC7 1-478): T1 sequence (Q7QCC7 1-478)
Method: as §1
To measure the ability of Orco antagonists to inhibit odorant activation, oocytes expressing heteromeric ORs (Orco + ORX) were exposed to a 30 sec application of odorant followed by a 20 min wash. Oocytes were then exposed to a 90 sec application of Orco antagonist, immediately followed by a 30 sec co-application of Orco antagonist and odorant. The current response to odorant in the presence of Orco antagonist was compared to the preceding response to odorant alone and represented as a percentage. This value was then normalized to the value obtained when the assay was run in the absence of antagonist (sham).
Figure S3. Effects of Orco antagonists on heteromeric ORs. […]
heteromeric complexes of odorant specificity subunits and Orco. The Orco antagonists tested were 3-isopropyl-6-methyl-catechol (3 I6 MC), a potent compound from the input training set, and two compounds id e ntified in Fig u re 4 an d Ta b le 1 : 2-tert-butyl-6-methylphenol (B MP ) and linalyl formate (LF) . […]
SEM (n = 4). […] Statistical significance of the data in each panel was assessed by one-way analysis of variance followed by Dunnett’s […]

In the case of `Cc1cccc(C(C)(C)C)c1O` [BMP, 2-tert-butyl-6-methylphenol], the “more potent than LF” value (Agam\Orco) is reported as 5 fold, the IC50 (Agam\Orco; 10 µM OLC12, n = 4-7, read-out: IC50 for inhibition of Agam\Orco activation by 10 µM OLC12) is reported as 12 ± 2 µM and the IC50 (Agam\Orco; 100 µM OLC12, n = 3-9, read-out: IC50 for inhibition of Agam\Orco activation by 100 µM OLC12) is reported as 137 ± 38 µM. The “mechanism of inhibition of Orco agonist (OLC12) responses” value (Agam\Orco; 10 vs 100 µM OLC12 shifts inhibition curve) was “competitive”, the IC50 (Agam\Orco; Table 1, inhibition of Agam\Orco activated by 30 µM OLC12, mean ± SEM (n = 3–8), read-out: IC50) was 48 ± 5 µM and the IC50 (Agam\Or28 + Agam\Orco; 100 µM acetophenone, n = 4-8, read-out: IC50 for inhibition of Agam\Or28 + Agam\Orco activation by 100 µM ACE) was 53 ± 9 µM. The “inhibition of odorant activation” value (Agam\Or28 + Agam\Orco) was “able to inhibit odorant activation”, the “mechanism of inhibition of odorant responses” value (Agam\Or28 + Agam\Orco; 10 vs 100 µM acetophenone fails to shift inhibition curve) was “non-competitive” and the “inhibition of odorant activation” value (Agam\Or65 + Agam\Orco) was “able to inhibit odorant activation”.

In the case of `C=CC(C)(CCC=C(C)C)OC=O` (stereo not shown) [LF, linalyl formate], the IC50 (Agam\Orco; read-out: IC50) is reported as 251 ± 39 µM, the “inhibition of odorant activation” value (Agam\Or28 + Agam\Orco) is reported as “able to inhibit odorant activation” and the “inhibition of odorant activation” value (Agam\Or65 + Agam\Orco) is reported as “able to inhibit odorant activation”.

With `Cc1ccc(C(C)C)c(O)c1O` [3I6MC, 3-isopropyl-6-methyl catechol] the “inhibition of OLC12 activation” value (Agam\Orco; 100 µM compound, 30 µM OLC12) was “strongly inhibited”, the IC50 (Agam\Orco; Agam\Orco activated by 30 µM OLC12, read-out: IC50) was 41 ± 7 µM and the “inhibition of odorant activation” value (Agam\Or28 + Agam\Orco) was “could inhibit odorant activation”. The “inhibition of odorant activation” value (Agam\Or65 + Agam\Orco) was “could inhibit odorant activation”.

— article PMC6411751, “Use of machine learning to identify novel, behaviorally active antagonists of the insect odorant receptor co-receptor (Orco) subunit” (Scientific Reports, 2019)
